Reference: PubChem BioAssay AID328 (DTP/NCI, 2004)
Where “and” joins values, the source holds several entries; their conditions need not be identical. Identical values can stand only once. Inconclusive results and toxic doses are left out.

Tested on: BDF1 mice, P388 leukemia ip, median survival T/C
Assay: NCI In Vivo Anticancer Drug Screen. Data for tumor model P388 Leukemia (intraperitoneal) in B6D2F1 (BDF1) mice
Conditions: endpoint: median survival time, higher = longer survival
Procedure, shortened: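 Vehicle-dosed animals serve as the reference; survival of compound-dosed, tumour-implanted mice is divided by it.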

[1] = dose: 100.0 mg/kg/injection, schedule: Q04DX003 (ip), vehicle: Klucel (hydroxypropylcellulose) (HPC)
[2] = dose: 200.0 mg/kg/injection, schedule: Q04DX003 (ip), vehicle: Klucel (hydroxypropylcellulose) (HPC)
[3] = dose: 400.0 mg/kg/injection, schedule: Q04DX003 (ip), vehicle: Klucel (hydroxypropylcellulose) (HPC)
[4] = dose: 100.0 mg/kg/injection, schedule: Q01DX009 (ip), vehicle: saline with Tween-80
[5] = dose: 200.0 mg/kg/injection, schedule: Q01DX009 (ip), vehicle: saline with Tween-80
[6] = dose: 50.0 mg/kg/injection, schedule: Q04DX003 (ip), vehicle: saline with Tween-80
[7] = dose: 100.0 mg/kg/injection, schedule: Q01DX009 (ip), vehicle: Klucel (hydroxypropylcellulose) (HPC)
[8] = dose: 200.0 mg/kg/injection, schedule: Q01DX009 (ip), vehicle: Klucel (hydroxypropylcellulose) (HPC)
[9] = dose: 400.0 mg/kg/injection, schedule: Q01DX009 (ip), vehicle: Klucel (hydroxypropylcellulose) (HPC)
[10] = dose: 100.0 mg/kg/injection, schedule: Q01DX001 (ip), vehicle: saline with Tween-80
[11] = dose: 200.0 mg/kg/injection, schedule: Q01DX001 (ip), vehicle: saline with Tween-80
[12] = dose: 400.0 mg/kg/injection, schedule: Q01DX001 (ip), vehicle: saline with Tween-80
[13] = dose: 12.5 mg/kg/injection, schedule: Q01DX009 (ip), vehicle: Klucel (hydroxypropylcellulose) (HPC)
[14] = dose: 25.0 mg/kg/injection, schedule: Q01DX009 (ip), vehicle: Klucel (hydroxypropylcellulose) (HPC)
[15] = dose: 50.0 mg/kg/injection, schedule: Q01DX009 (ip), vehicle: Klucel (hydroxypropylcellulose) (HPC)
[16] = dose: 12.5 mg/kg/injection, schedule: Q01DX009 (ip), vehicle: saline
[17] = dose: 25.0 mg/kg/injection, schedule: Q01DX009 (ip), vehicle: saline
[18] = dose: 50.0 mg/kg/injection, schedule: Q01DX009 (ip), vehicle: saline
[19] = dose: 100.0 mg/kg/injection, schedule: Q01DX009 (ip), vehicle: saline
[20] = dose: 100.0 mg/kg/injection, schedule: Q04DX003 (ip), vehicle: saline
[21] = dose: 200.0 mg/kg/injection, schedule: Q01DX009 (ip), vehicle: saline
[22] = dose: 200.0 mg/kg/injection, schedule: Q04DX003 (ip), vehicle: saline
[23] = dose: 400.0 mg/kg/injection, schedule: Q01DX009 (ip), vehicle: saline
[24] = dose: 400.0 mg/kg/injection, schedule: Q04DX003 (ip), vehicle: saline
[25] = dose: 50.0 mg/kg/injection, schedule: Q01DX009 (ip), vehicle: saline with Tween-80

Q: How did the T/C [1] turn out when `Cc1ccc(OC/C=C/CSc2ccc(C)cc2)cc1` was run?
A: 108 % of control

Q: And the T/C [2]?
A: 108 % of control

Q: And the T/C [3]?
A: 108 % of control

Q: For `C=C(C)c1c2ccccc2cc2cccc(Sc3ccccc3)c12`, which T/C [4] is on record?
A: 100 % of control

Q: And the T/C [5]?
A: 95 % of control

Q: What about the T/C (dose: 400.0 mg/kg/injection, schedule: Q01DX009 (ip), vehicle: saline with Tween-80) of the same molecule?
A: 100 % of control

Q: Which results are given for `COc1cc(C=Nc2cc(Cl)ccc2-n2ccnc2C)ccc1N(CCCl)CCCl`?
A: T/C (dose: 21.0 mg/kg/injection, schedule: Q04DX003 (ip), vehicle: saline with Tween-80): 170 % of control; T/C (dose: 33.0 mg/kg/injection, schedule: Q04DX003 (ip), vehicle: saline with Tween-80): 235 % of control; T/C [6]: 170 % of control; T/C (dose: 75.0 mg/kg/injection, schedule: Q04DX003 (ip), vehicle: saline with Tween-80): 178 % of control

Q: Which results are given for `Cc1ccc([N+](=O)[O-])cc1NC(=O)Nc1ccc(S(N)(=O)=O)cc1`?
A: T/C [7]: 100 % of control; T/C [8]: 100 % of control; T/C [9]: 100 % of control

Q: What does the source list for `CCN(CC)c1cc(Cl)c(C=O)cc1[N+](=O)[O-]`?
A: T/C [7]: 95 % of control; T/C [8]: 104 % of control; T/C [9]: 95 % of control

Q: Which results are given for `CC(Nc1ccccc1)(C(N)=O)c1ccccc1` (centres undefined)?
A: T/C (dose: 25.0 mg/kg/injection, schedule: Q01DX001 (ip), vehicle: saline with Tween-80): 90 % of control; T/C (dose: 50.0 mg/kg/injection, schedule: Q01DX001 (ip), vehicle: saline with Tween-80): 104 % of control; T/C [10]: 95 % of control; T/C [11]: 90 % of control; T/C [12]: 95 % of control

Q: How did the T/C [13] turn out when `NC(=O)c1cn[nH]c1N` was run?
A: 95 % of control

Q: And the T/C [14]?
A: 87 % of control

Q: And the T/C [15]?
A: 91 % of control

Q: What about the T/C [1] of the same molecule?
A: 104 % of control

Q: What about the T/C [2] of the same molecule?
A: 100 % of control

Q: And the T/C [3]?
A: 113 % of control

Q: Which T/C (dose: 0.78 mg/kg/injection, schedule: Q01DX009 (ip), vehicle: Klucel (hydroxypropylcellulose) (HPC)) does the source give for `COC1C(O)=C2C(=O)OC(C)(O)/C=C/C=C\C=C/C=C/C(c3ccccc3)NC(=O)/C=C/C=C/C=C/C=C/C2(C)C1O` (centres undefined) here?
A: 88 % of control

Q: And the T/C (dose: 1.56 mg/kg/injection, schedule: Q01DX009 (ip), vehicle: Klucel (hydroxypropylcellulose) (HPC))?
A: 107 % of control

Q: And the T/C (dose: 3.12 mg/kg/injection, schedule: Q01DX009 (ip), vehicle: Klucel (hydroxypropylcellulose) (HPC))?
A: 107 % of control

Q: How did the T/C (dose: 100.0 mg/kg/injection, schedule: Q01DX009 (ip), vehicle: other) turn out when `CCCCCCC(O)CCCCCC` was run?
A: 90 % of control

Q: And the T/C (dose: 200.0 mg/kg/injection, schedule: Q01DX009 (ip), vehicle: other)?
A: 105 % of control

Q: What does the source list for `O=[N+]([O-])c1ccc(N2CCCCC2)c([N+](=O)[O-])c1`?
A: T/C [16]: 110 % of control; T/C [17]: 109 % of control; T/C (dose: 25.0 mg/kg/injection, schedule: Q04DX003 (ip), vehicle: saline): 121 % of control; T/C [18]: 116 % of control; T/C (dose: 50.0 mg/kg/injection, schedule: Q04DX003 (ip), vehicle: saline): 114 % of control; T/C [19]: 100 % of control; T/C [20]: 112 % of control; T/C [21]: 110 % of control; T/C [22]: 123 % of control; T/C [23]: 110 % of control; T/C [24]: 102 % of control

Q: With `CC1CNC(=S)O1` (centres undefined) as the molecule, how does the T/C [6] read?
A: 90 % of control

Q: And the T/C (dose: 100.0 mg/kg/injection, schedule: Q04DX003 (ip), vehicle: saline with Tween-80)?
A: 120 % of control

Q: What about the T/C (dose: 200.0 mg/kg/injection, schedule: Q04DX003 (ip), vehicle: saline with Tween-80) of the same molecule?
A: 90 % of control

Q: What about the T/C (dose: 400.0 mg/kg/injection, schedule: Q04DX003 (ip), vehicle: saline with Tween-80) of the same molecule?
A: 115 % of control

Q: What does the source list for `CCOC(=N)CC(=N)OCC`?
A: T/C (dose: 100.0 mg/kg/injection, schedule: Q01DX009 (ip), vehicle: water): 103 % of control; T/C (dose: 100.0 mg/kg/injection, schedule: Q04DX003 (ip), vehicle: water): 104 % of control; T/C (dose: 200.0 mg/kg/injection, schedule: Q01DX009 (ip), vehicle: water): 103 % of control; T/C (dose: 200.0 mg/kg/injection, schedule: Q04DX003 (ip), vehicle: water): 100 % of control; T/C (dose: 400.0 mg/kg/injection, schedule: Q01DX009 (ip), vehicle: water): 101 % of control; T/C (dose: 400.0 mg/kg/injection, schedule: Q04DX003 (ip), vehicle: water): 100 % of control

Q: Which T/C (dose: 25.0 mg/kg/injection, schedule: Q01DX001 (ip), vehicle: saline) does the source give for `OC(c1ccccc1)(C1CCNCC1)C1CC1` (centres undefined) here?
A: 107 % of control

Q: And the T/C (dose: 50.0 mg/kg/injection, schedule: Q01DX001 (ip), vehicle: saline)?
A: 107 % of control

Q: What about the T/C (dose: 100.0 mg/kg/injection, schedule: Q01DX001 (ip), vehicle: saline) of the same molecule?
A: 118 % of control

Q: Which T/C [17] does the source give for `CC(O)(c1ccc(Br)cc1)C(c1ccccc1)c1ccccn1` (centres undefined) here?
A: 104 % of control

Q: What about the T/C [18] of the same molecule?
A: 100 % of control

Q: And the T/C [19]?
A: 86 % of control

Q: And the T/C [20]?
A: 111 % of control

Q: What about the T/C [21] of the same molecule?
A: 111 % of control

Q: And the T/C [22]?
A: 104 % of control

Q: What about the T/C [23] of the same molecule?
A: 101 % of control

Q: And the T/C [24]?
A: 109 % of control

Q: What does the source list for `Cc1ccc(C(=O)CO)cc1`?
A: T/C [25]: 98 % of control; T/C [4]: 102 % of control; T/C [5]: 98 % of control

Q: Which T/C (dose: 100.0 mg/kg/injection, schedule: Q01DX009 (ip), vehicle: saline sonified) does the source give for `CN(N=O)c1ccc(/C=C/c2ccnc3ccccc23)cc1` here?
A: 115 % of control

Q: For `NC(Cc1cc(Cl)c(O)c(Cl)c1)C(=O)O` (centres undefined), which T/C [19] is on record?
A: 94 % of control

Q: What about the T/C (dose: 150.0 mg/kg/injection, schedule: Q01DX009 (ip), vehicle: saline) of the same molecule?
A: 97 % of control

Q: What about the T/C [21] of the same molecule?
A: 105 % of control

Q: Which results are given for `COc1cc(/C=C\C(=O)c2ccc(F)cc2)cc(OC)c1OC`?
A: T/C [10]: 98 % of control; T/C [11]: 96 % of control; T/C [12]: 100 % of control

Q: `Clc1nc2ccccc2n2nnnc12` was tested. Which T/C (dose: 5.0 mg/kg/injection, schedule: Q01DX009 (ip), vehicle: saline with Tween-80) did it give?
A: 105 % of control

Q: What about the T/C (dose: 10.0 mg/kg/injection, schedule: Q01DX009 (ip), vehicle: saline with Tween-80) of the same molecule?
A: 105 % of control

Q: What about the T/C [16] of the same molecule?
A: 94 % of control

Q: What about the T/C (dose: 20.0 mg/kg/injection, schedule: Q01DX009 (ip), vehicle: saline with Tween-80) of the same molecule?
A: 107 % of control

Q: What about the T/C [17] of the same molecule?
A: 97 % of control

Q: Which T/C (dose: 3.13 mg/kg/injection, schedule: Q01DX009 (ip), vehicle: Klucel (hydroxypropylcellulose) (HPC)) does the source give for `COc1cc(C=Nc2ccc(-c3nc(Cc4ccccc4)sc3C)cc2)ccc1N(CCCl)CCCl` here?
A: 196 % of control

Q: What about the T/C (dose: 6.25 mg/kg/injection, schedule: Q01DX009 (ip), vehicle: Klucel (hydroxypropylcellulose) (HPC)) of the same molecule?
A: 206 % of control

Q: What about the T/C [13] of the same molecule?
A: 221 % of control

Q: And the T/C [14]?
A: 194 % of control and 198 % of control

Q: And the T/C [15]?
A: 108 % of control

Q: With `CC(=O)OCC(OC(C)=O)c1cc(/C=N/N(C(C)=O)c2ccccc2)nn1-c1ccccc1` (centres undefined) as the molecule, how does the T/C (dose: 25.0 mg/kg/injection, schedule: Q01DX009 (ip), vehicle: saline with Tween-80) read?
A: 101 % of control

Q: What about the T/C [25] of the same molecule?
A: 98 % of control

Q: And the T/C [4]?
A: 96 % of control

Q: How did the T/C (dose: 50.0 mg/kg/injection, schedule: Q01DX005 (ip), vehicle: suspension in saline) turn out when `COc1cc(NC(=O)C(C)NC(=O)C(N)CCCCN)cc2ccccc12` (centres undefined) was run?
A: 95 % of control

Q: And the T/C (dose: 100.0 mg/kg/injection, schedule: Q01DX005 (ip), vehicle: suspension in saline)?
A: 90 % of control

Q: For `O=C(Nc1ccccc1C(F)(F)F)Nc1cccc2ccccc12`, which T/C [11] is on record?
A: 90 % of control

Q: What about the T/C [12] of the same molecule?
A: 86 % of control

Q: Which results are given for `c1cc2c3c(c1)ncn3CCC2`?
A: T/C (dose: 25.0 mg/kg/injection, schedule: Q04DX003 (ip), vehicle: other): 100 % of control; T/C (dose: 50.0 mg/kg/injection, schedule: Q04DX003 (ip), vehicle: other): 100 % of control; T/C (dose: 100.0 mg/kg/injection, schedule: Q04DX003 (ip), vehicle: other): 95 % of control
